Key:
AtSHT [1] = molecular target: T1, AtSHT (Arabidopsis thaliana, UniProt O64470); assay: LC-MS product assay; X-ray crystal structure; format: biochemical; conditions: 200 µM spermidine, 60 µM feruloyl-CoA, pH 7.5, 30 °C, 30 min; ligand in crystal only possible electron density, pose docked
T1 construct: gene SHT; wild type in pET28a (NdeI/XhoI), E. coli BL21(DE3), Ni-NTA and gel filtration; model residues 1-451
T1 sequence (O64470 1-451): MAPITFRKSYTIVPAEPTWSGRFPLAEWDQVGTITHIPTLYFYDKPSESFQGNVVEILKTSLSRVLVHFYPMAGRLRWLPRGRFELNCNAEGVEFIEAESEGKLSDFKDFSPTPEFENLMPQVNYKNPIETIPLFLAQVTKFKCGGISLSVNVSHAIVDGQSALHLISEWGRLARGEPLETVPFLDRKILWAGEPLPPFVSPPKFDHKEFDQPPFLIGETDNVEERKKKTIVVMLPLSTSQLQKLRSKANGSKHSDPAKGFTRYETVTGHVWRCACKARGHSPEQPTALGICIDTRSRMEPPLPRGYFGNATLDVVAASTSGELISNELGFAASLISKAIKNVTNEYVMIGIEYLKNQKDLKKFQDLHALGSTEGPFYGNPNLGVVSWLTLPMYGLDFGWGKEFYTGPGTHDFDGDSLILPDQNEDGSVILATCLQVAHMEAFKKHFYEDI

AtSDT [2] = molecular target: T2, AtSDT (Arabidopsis thaliana, UniProt O80467); assay: LC-MS product assay; X-ray crystal structure; format: biochemical; conditions: 200 µM spermidine, 60 µM sinapoyl-CoA, pH 7.5, 30 °C, 30 min; ligand in crystal only possible electron density, pose docked
T2 construct: gene SDT; wild type in pET28a (NdeI/XhoI), E. coli BL21(DE3), Ni-NTA and gel filtration
T2 sequence (O80467 1-451): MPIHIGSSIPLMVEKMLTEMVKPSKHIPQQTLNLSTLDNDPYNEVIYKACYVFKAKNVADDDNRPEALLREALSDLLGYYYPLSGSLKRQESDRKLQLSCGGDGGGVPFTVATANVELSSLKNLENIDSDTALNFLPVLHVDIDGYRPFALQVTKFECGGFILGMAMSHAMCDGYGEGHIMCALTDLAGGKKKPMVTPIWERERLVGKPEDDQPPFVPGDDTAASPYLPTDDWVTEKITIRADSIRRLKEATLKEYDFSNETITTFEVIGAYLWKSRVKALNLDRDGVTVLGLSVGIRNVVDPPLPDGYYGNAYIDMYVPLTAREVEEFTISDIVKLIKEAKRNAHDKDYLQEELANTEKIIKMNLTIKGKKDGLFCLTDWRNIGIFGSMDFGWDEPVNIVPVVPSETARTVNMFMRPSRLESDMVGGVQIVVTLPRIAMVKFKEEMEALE

NP_190301.2 = molecular target: T3, NP_190301.2 (Arabidopsis thaliana, UniProt F4JAD2); assay: HPLC-MS product assay; format: biochemical; conditions: 200 µM putrescine, pH 7.5, 30 °C, 30 min
T3 construct: gene At3g47170; wild type in pET28a (NdeI/XhoI), E. coli BL21(DE3), Ni-NTA and gel filtration
T3 sequence (F4JAD2 1-468): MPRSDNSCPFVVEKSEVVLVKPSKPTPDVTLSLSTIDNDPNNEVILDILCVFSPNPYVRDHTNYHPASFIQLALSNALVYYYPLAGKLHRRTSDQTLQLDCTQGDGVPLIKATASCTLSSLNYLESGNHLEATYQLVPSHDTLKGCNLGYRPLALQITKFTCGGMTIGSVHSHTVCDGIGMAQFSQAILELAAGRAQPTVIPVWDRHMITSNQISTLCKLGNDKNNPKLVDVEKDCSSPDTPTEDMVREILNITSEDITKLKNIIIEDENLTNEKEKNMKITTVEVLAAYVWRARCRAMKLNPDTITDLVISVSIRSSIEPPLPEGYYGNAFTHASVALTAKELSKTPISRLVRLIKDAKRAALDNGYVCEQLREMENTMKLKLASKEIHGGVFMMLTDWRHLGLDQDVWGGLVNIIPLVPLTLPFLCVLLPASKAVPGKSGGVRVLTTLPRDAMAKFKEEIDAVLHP

AtSDT [3] = molecular target: T2, AtSDT; assay: LC-MS product assay; format: biochemical; conditions: 60 µM acyl donor, 200 µM spermidine, pH 7.5, 30 °C, 30 min
OAO95042.1 = molecular target: T4, OAO95042.1 (Arabidopsis thaliana, UniProt F4K5C5); assay: HPLC-MS product assay; format: biochemical; conditions: 200 µM putrescine, 60 µM caffeoyl-CoA, pH 7.5, 30 °C, 30 min
T4 construct: gene At5g07080; wild type in pET28a (NdeI/XhoI), E. coli BL21(DE3), Ni-NTA and gel filtration
T4 sequence (F4K5C5 1-450): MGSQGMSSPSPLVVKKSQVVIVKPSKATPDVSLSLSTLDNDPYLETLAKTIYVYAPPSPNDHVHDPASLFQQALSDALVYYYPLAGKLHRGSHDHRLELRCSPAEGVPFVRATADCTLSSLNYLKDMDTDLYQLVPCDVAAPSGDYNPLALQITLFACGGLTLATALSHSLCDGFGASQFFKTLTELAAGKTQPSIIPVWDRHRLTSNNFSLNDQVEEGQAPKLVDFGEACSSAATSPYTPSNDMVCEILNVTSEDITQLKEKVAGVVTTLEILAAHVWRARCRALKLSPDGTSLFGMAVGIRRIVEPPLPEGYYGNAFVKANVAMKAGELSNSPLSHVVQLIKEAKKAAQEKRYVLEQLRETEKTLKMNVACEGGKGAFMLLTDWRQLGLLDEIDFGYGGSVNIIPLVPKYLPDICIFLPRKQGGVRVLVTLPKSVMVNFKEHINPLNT

AtSHT [4] = molecular target: T1, AtSHT; assay: X-ray crystal structure; format: binding; conditions: co-crystallised with spermidine and CoA; 2.3 Å; active site near His155
AtSHT [5] = molecular target: T1, AtSHT; assay: LC-MS product assay; format: biochemical; conditions: 60 µM acyl donor, 200 µM spermidine, pH 7.5, 30 °C, 30 min

NCCCCNCCCN [spermidine]
LC-MS product assay; X-ray crystal structure (AtSHT [1]): wild-type AtSHT can efficiently convert spermidine and feruloyl-CoA to monoferuloyl spermidine
LC-MS product assay; X-ray crystal structure (AtSDT [2]): wild-type AtSDT can efficiently couple spermidine with sinapoyl CoA to yield monosinapoyl

CC(C)(COP(=O)(O)OP(=O)(O)OC[C@H]1O[C@@H](n2cnc3c(N)ncnc32)[C@H](O)[C@@H]1OP(=O)(O)O)[C@@H](O)C(=O)NCCC(=O)NCCSC(=O)/C=C/c1ccc(O)c(O)c1 [caffeoyl-CoA]
HPLC-MS product assay (NP_190301.2; 60 µM acyl donor): encoded enzymes that could efficiently convert putrescine and caffeoyl-CoA to di-caffeoyl putrescine

COc1cc(/C=C/C(=O)SCCNC(=O)CCNC(=O)[C@H](O)C(C)(C)COP(=O)(O)OP(=O)(O)OC[C@H]2O[C@@H](n3cnc4c(N)ncnc43)[C@H](O)[C@@H]2OP(=O)(O)O)cc(OC)c1O [sinapoyl-CoA]
LC-MS product assay (AtSDT [3]): wild-type AtSDT can efficiently couple spermidine with sinapoyl CoA to yield monosinapoyl

NCCCCN [putrescine]
HPLC-MS product assay (NP_190301.2; 60 µM caffeoyl-CoA): encoded enzymes that could efficiently convert putrescine and caffeoyl-CoA to di-caffeoyl putrescine
HPLC-MS product assay (OAO95042.1): encoded enzymes that could efficiently convert putrescine and caffeoyl-CoA to di-caffeoyl putrescine

CC(C)(COP(=O)(O)OP(=O)(O)OC[C@H]1O[C@@H](n2cnc3c(N)ncnc32)[C@H](O)[C@@H]1OP(=O)(O)O)[C@@H](O)C(=O)NCCC(=O)NCCS [CoA-HS]
X-ray crystal structure (AtSHT [4]): The extra density near His155 was determined as CoA-HS

COc1cc(/C=C/C(=O)SCCNC(=O)CCNC(=O)[C@H](O)C(C)(C)COP(=O)(O)OP(=O)(O)OC[C@H]2O[C@@H](n3cnc4c(N)ncnc43)[C@H](O)[C@@H]2OP(=O)(O)O)ccc1O [feruloyl-CoA]
LC-MS product assay (AtSHT [5]): wild-type AtSHT can efficiently convert spermidine and feruloyl-CoA to monoferuloyl spermidine

Source: paper PMC7838080, “Structural and Biochemical Insights Into Two BAHD Acyltransferases (AtSHT and AtSDT) Involved in Phenolamide Biosynthesis” (Frontiers in Plant Science, 2021)
